Like-named read-outs stand apart in the source and are kept apart here.
Columns and labels:
[1] = molecular target: T1, Electric eel acetylcholinesterase (AChE, EC 3.1.1.7) (Electrophorus electricus, UniProt O42275); test: biochemical; format: biochemical; conditions: for AChE inhibition effect (in words): 2a, 2r: up to a concentration of 1000 µM
T1 construct: purchased Sigma-Aldrich (St. Louis, MO, USA)
Source text: (§1) Electric eel acetylcholinesterase (AChE, EC 3.1.1.7), equine serum butyrylcholinesterase (BChE, EC 3.1.1.8), 5,5’-dithio-bis-2-nitrobenzoic acid (DTNB), and sodium phosphate dibasic (Na2HPO4) were purchased from Sigma-Aldrich (St. Louis, MO, USA). S-butyrylthiocholine chloride (BTCC) from Sigma-Aldrich (Buchs, Switzerland), acetylthiocholine iodide (ATCI) from Sigma-Aldrich (Dorset, UK) and sodium phosphate monobasic (NaH2PO4) from Sigma-Aldrich (Munich, Germany) were purchased. […] The reagents and solvents for the synthesis work were obtained commercially from Sigma-Aldrich Corporation (St. Louis, MO, USA) and used without any further purification.
(§2) AChE and BChE inhibitory activities of the compounds were determined by Ellman’s assay with minor modifications. […] After a pre-incubation of 15 min at room temperature, 10 µL of 0.50 mM DTNB was added into each well, followed by 10 µL of 0.71 mM acetylthiocholine iodide as the substrate. […] Each test was carried out in triplicate and the results were expressed as an average value. The percentage of inhibition was calculated using the following formula: (1) Percentage of inhibition=S blank -S sample/S blank × 100% where S blank is slope of the blank reaction (without compounds or a reference standard) and S sample is the slope of the sample reaction (with compounds or a reference drug).
(§3) The results of the cholinesterase inhibitory assay were expressed as means ± SD, and were labeled if p < 0.05 using ANOVA of IBM SPSS Statistics for Windows, Version 23.0 (IBM, New York, NY, USA).

[2] = molecular target: T2, equine serum butyrylcholinesterase (BChE, EC 3.1.1.8) (Equus caballus, UniProt P81908); test: biochemical; format: biochemical; conditions: for BChE inhibition effect (in words): 2a, 2r: up to a concentration of 1000 µM
T2 construct: purchased Sigma-Aldrich (St. Louis, MO, USA); host or cells: equine serum
Source text: as §1, §2, §3

[3] = Ellman's assay, pH 8, 15 min pre-incubation, acetylthiocholine iodide substrate, mean ± SD, triplicate, read-out: AChE IC50
[4] = Ellman's assay, pH 8, 15 min pre-incubation, butyrylthiocholine chloride substrate, mean ± SD, triplicate, read-out: BChE IC50

T1 sequence (O42275 24-633): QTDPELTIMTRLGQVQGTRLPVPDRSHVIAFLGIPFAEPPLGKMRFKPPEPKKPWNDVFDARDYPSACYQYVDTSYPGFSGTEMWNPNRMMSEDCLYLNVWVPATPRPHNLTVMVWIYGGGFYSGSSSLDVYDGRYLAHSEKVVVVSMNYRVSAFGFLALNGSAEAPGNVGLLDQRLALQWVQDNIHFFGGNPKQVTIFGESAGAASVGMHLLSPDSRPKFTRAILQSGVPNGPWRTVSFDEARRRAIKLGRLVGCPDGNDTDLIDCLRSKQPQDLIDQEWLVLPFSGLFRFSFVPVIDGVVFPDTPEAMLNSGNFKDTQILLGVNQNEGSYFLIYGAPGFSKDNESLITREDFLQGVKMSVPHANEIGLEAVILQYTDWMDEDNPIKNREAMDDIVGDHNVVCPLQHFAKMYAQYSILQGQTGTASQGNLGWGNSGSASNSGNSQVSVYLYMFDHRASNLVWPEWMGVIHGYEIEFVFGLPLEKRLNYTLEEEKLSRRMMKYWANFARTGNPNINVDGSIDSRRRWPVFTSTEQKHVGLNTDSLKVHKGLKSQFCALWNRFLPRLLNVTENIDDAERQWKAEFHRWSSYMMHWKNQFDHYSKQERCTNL
T2 sequence (P81908 whole entry): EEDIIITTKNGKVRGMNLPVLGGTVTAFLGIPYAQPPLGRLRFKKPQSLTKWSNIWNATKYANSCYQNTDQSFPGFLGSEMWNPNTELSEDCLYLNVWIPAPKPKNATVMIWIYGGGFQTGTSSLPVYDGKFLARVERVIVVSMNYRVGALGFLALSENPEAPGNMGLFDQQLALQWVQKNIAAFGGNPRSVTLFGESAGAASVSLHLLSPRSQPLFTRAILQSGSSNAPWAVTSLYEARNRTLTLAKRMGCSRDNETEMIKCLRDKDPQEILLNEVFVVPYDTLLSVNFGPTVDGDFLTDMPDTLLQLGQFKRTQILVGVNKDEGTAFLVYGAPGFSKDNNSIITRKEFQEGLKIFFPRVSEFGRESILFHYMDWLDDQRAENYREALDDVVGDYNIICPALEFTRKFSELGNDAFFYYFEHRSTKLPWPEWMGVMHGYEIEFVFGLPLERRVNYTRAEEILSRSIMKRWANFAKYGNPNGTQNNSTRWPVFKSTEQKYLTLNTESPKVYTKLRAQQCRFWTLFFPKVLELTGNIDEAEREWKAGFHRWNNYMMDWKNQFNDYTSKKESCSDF

## O=C(OCC(=O)C12CC3CC(CC(C3)C1)C2)c1ccc([N+](=O)[O-])cc1 [Compound 2n, 2-(Adamantan-1-yl)-2-oxoethyl 4-nitrobenzoate]
[1]; [3]
  IC50: 349 ± 25.2 µM
[2]; [4]
  IC50: 777 ± 33.6 µM

## O=C(OCC(=O)C12CC3CC(CC(C3)C1)C2)c1ccc(Cl)cc1 [Compound 2d, 2-(Adamantan-1-yl)-2-oxoethyl 4-chlorobenzoate]
[1]; [3]
  IC50: 341 ± 34.7 µM
[2]; [4]
  IC50: 1290 ± 30.1 µM

## Nc1ccc(C(=O)OCC(=O)C23CC4CC(CC(C4)C2)C3)cc1 [Compound 2q, 2-(adamantan-1-yl)-2-oxoethyl 4-aminobenzoate]
[1]
  AChE inhibition effect (in words): inactive
[1]; [3]
  IC50: > 1500 µM
[2]
  BChE inhibition effect (in words): inactive
[2]; [4]
  IC50: > 1500 µM

## COc1ccccc1C(=O)OCC(=O)C12CC3CC(CC(C3)C1)C2 [Compound 2i, 2-(Adamantan-1-yl)-2-oxoethyl 2-methoxybenzoate]
[1]; [3]
  IC50: > 1500 µM
[2]; [4]
  IC50: > 1500 µM

## O=C(OCC(=O)C12CC3CC(CC(C3)C1)C2)c1cccc(Cl)c1 [Compound 2c, 2-(Adamantan-1-yl)-2-oxoethyl 3-chlorobenzoate]
[1]; [3]
  IC50: 280 ± 17.4 µM
[2]; [4]
  IC50: 971 ± 62.5 µM

## O=C(OCC(=O)C12CC3CC(CC(C3)C1)C2)c1cccc([N+](=O)[O-])c1 [Compound 2m, 2-(Adamantan-1-yl)-2-oxoethyl 3-nitrobenzoate]
[1]; [3]
  IC50: 233 ± 25.9 µM
[2]; [4]
  IC50: > 1500 µM

## Cc1ccccc1C(=O)OCC(=O)C12CC3CC(CC(C3)C1)C2 [Compound 2f, 2-(Adamantan-1-yl)-2-oxoethyl 2-methylbenzoate]
[1]; [3]
  IC50: 175 ± 25.9 µM
[2]; [4]
  IC50: > 1500 µM

## COc1ccc(C(=O)OCC(=O)C23CC4CC(CC(C4)C2)C3)cc1 [Compound 2k, 2-(Adamantan-1-yl)-2-oxoethyl 4-methoxybenzoate]
[1]; [3]
  IC50: > 1500 µM
[2]; [4]
  IC50: > 1500 µM

## O=C(OCC(=O)C12CC3CC(CC(C3)C1)C2)c1ccccc1 [Compound 2a, 2-(Adamantan-1-yl)-2-oxoethyl benzoate]
[1]
  AChE inhibition effect (in words): low inhibition effects
[1]; [3]
  IC50: 994 ± 19.4 µM
[2]
  BChE inhibition effect (in words): low inhibition effects
[2]; [4]
  IC50: > 1500 µM

## O=C(OCC(=O)C12CC3CC(CC(C3)C1)C2)c1ccccc1Cl [Compound 2b, 2-(Adamantan-1-yl)-2-oxoethyl 2-chlorobenzoate]
[1]; [3]
  IC50: 361 ± 30 µM
[2]; [4]
  IC50: > 1500 µM

## COc1cccc(C(=O)OCC(=O)C23CC4CC(CC(C4)C2)C3)c1 [Compound 2j, 2-(Adamantan-1-yl)-2-oxoethyl 3-methoxybenzoate]
[1]; [3]
  IC50: 166 ± 19.6 µM
[2]; [4]
  IC50: 223 ± 17.6 µM

## Cc1cccc(C(=O)OCC(=O)C23CC4CC(CC(C4)C2)C3)c1 [Compound 2g, 2-(Adamantan-1-yl)-2-oxoethyl 3-methylbenzoate]
[1]; [3]
  IC50: 191 ± 14.4 µM
[2]; [4]
  IC50: > 1500 µM

## Nc1cccc(C(=O)OCC(=O)C23CC4CC(CC(C4)C2)C3)c1 [Compound 2p, 2-(adamantan-1-yl)-2-oxoethyl 3-aminobenzoate]
[1]
  AChE inhibition effect (in words): inactive
[1]; [3]
  IC50: > 1500 µM
[2]
  BChE inhibition effect (in words): inactive
[2]; [4]
  IC50: > 1500 µM

## O=C(OCC(=O)C12CC3CC(CC(C3)C1)C2)c1ccc(Cl)cc1Cl [Compound 2e, 2-(Adamantan-1-yl)-2-oxoethyl 2,4-dichlorobenzoate]
[1]; [3]
  IC50: 77.1 ± 7.86 µM
[2]; [4]
  IC50: 307 ± 25.1 µM

## Cc1ccc(C(=O)OCC(=O)C23CC4CC(CC(C4)C2)C3)cc1 [Compound 2h, 2-(Adamantan-1-yl)-2-oxoethyl 4-methylbenzoate]
[1]; [3]
  IC50: > 1500 µM
[2]; [4]
  IC50: > 1500 µM

## Nc1ccccc1C(=O)OCC(=O)C12CC3CC(CC(C3)C1)C2 [Compound 2o, 2-(adamantan-1-yl)-2-oxoethyl 2-aminobenzoate]
[1]
  IC50: > 1500 µM
  AChE inhibition effect (in words): inactive
[2]
  IC50: > 1500 µM
  BChE inhibition effect (in words): inactive

## O=C(OCC(=O)C12CC3CC(CC(C3)C1)C2)c1ccccn1 [Compound 2r, 2-(Adamantan-1-yl)-2-oxoethyl picolinate]
[1]
  AChE inhibition effect (in words): low inhibition effects
[1]; [3]
  IC50: > 1500 µM
[2]
  BChE inhibition effect (in words): low inhibition effects
[2]; [4]
  IC50: > 1500 µM

## O=C(OCC(=O)C12CC3CC(CC(C3)C1)C2)c1ccccc1[N+](=O)[O-] [Compound 2l, 2-(Adamantan-1-yl)-2-oxoethyl 2-nitrobenzoate]
[1]; [3]
  IC50: 689 ± 44.5 µM
[2]; [4]
  IC50: > 1500 µM
